molecular target: T1, human vasopressin V1b receptor (Homo sapiens, UniProt P47901); experiment: Vasopressin V1b receptor binding assay; conditions: membranes from CHO-K1 cells with stably expressed human V1b receptors; displacement of 1.5 nM 3H-AVP; read-out: V1b receptor affinity (affinity constant Ki)
T1 construct: expressed in transfected cells; host or cells: CHO-K1 (cell line hV1b-3H2_CHO), membrane preparation
T1 sequence (P47901 1-424): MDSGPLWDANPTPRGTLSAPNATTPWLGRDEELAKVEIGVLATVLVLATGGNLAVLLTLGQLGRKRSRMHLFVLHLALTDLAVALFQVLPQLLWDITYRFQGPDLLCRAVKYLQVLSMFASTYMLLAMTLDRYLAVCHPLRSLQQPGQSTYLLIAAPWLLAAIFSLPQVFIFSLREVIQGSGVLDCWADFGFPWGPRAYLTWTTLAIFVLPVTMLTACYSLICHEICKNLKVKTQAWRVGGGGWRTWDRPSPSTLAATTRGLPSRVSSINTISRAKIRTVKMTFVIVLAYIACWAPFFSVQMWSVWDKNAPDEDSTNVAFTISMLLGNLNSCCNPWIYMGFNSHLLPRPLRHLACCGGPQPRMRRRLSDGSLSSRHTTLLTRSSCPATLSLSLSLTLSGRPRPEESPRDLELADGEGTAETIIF
Summary of the method: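 Ki values come from nonlinear regression of triplicate scintillation counts after filtration. Test compound (2% DMSO in the mixture) and radioligand were incubated 60 min at room temperature with human V1b membranes in pH 7.4 Tris buffer with 10 mM MgCl2 and 0.1% BSA. Nonspecific binding was set with 1 uM AVP.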

Row | SMILES | Ki [µM]
1 | CCN1CCC(N[C@H]2CCN(C(=O)C(c3ccccc3)n3c(=O)n(S(=O)(=O)c4ccc(OC)cc4)c4ccc(C#N)cc43)C2)CC1 (stereo partly drawn) [Example 209, 3-{2-[(S)-3-(1-Ethylpiperidin-4-ylamino)pyrrolidin-1-yl]-2-oxo-1-phenylethyl}-1-(4-methoxybenzenesulfonyl)-2-oxo-2,3-dihydro-1H-benzimidazole-5-carbonitrile] | < 0.1
2 | CCCN1CCC(N[C@H]2CCN(C(=O)C(c3ccccc3)n3c(=O)n(S(=O)(=O)c4ccc(OC)cc4)c4ccc(C#N)cc43)C2)CC1 (stereo partly drawn) [Example 210, 1-(4-Methoxybenzenesulfonyl)-2-oxo-3-{2-oxo-1-phenyl-2-[(S)-3-(1-propylpiperidin-4-ylamino)pyrrolidin-1-yl]ethyl}-2,3-dihydro-1H-benzimidazole-5-carbonitrile] | < 0.1
3 | COc1ccc(S(=O)(=O)n2c(=O)n(C(C(=O)N3CC[C@H](N(C)C4CCN(C)CC4)C3)c3ccccc3)c3cc(C#N)ccc32)cc1 (stereo partly drawn) [Example 211, 1-(4-Methoxybenzenesulfonyl)-3-(2-{(S)-3-[methyl-(1-methylpiperidin-4-yl)-amino]pyrrolidin-1-yl}-2-oxo-1-phenylethyl)-2-oxo-2,3-dihydro-1H-benzimidazole-5-carbonitrile] | < 0.1
4 | CCCN1CCN([C@H]2CCN(C(=O)C(c3ccccc3)n3c(=O)n(S(=O)(=O)c4ccc(C#N)cc4)c4ccc(C#N)cc43)C2)CC1 (stereo partly drawn) [Example 215, 1-(4-Cyano-benzenesulfonyl)-2-oxo-3-{2-oxo-1-phenyl-2-[(S)-3-(4-propylpiperazin-1-yl)-pyrrolidin-1-yl]ethyl}-2,3-dihydro-1H-benzoimidazole-5-carbonitrile] | 0.1 to 0.5
5 | COc1ccc(S(=O)(=O)n2c(=O)n(C(C(=O)N3CC[C@H](NC(=O)OC(C)(C)C)C3)c3ccccc3)c3cc(C#N)ccc32)cc1 (stereo partly drawn) [Example 216, ((S)-1-{2-[6-Cyano-3-(4-methoxy-benzenesulfonyl)-2-oxo-2,3-dihydrobenzoimidazol-1-yl]-2-phenyl-acetyl}-pyrrolidin-3-yl)-carbamic acid tert-butyl ester] | 0.5 to 10
6 | CCCN1CCN([C@H]2CCN(C(=O)C(c3ccccc3)n3c(=O)n(S(=O)(=O)c4ccc(OCCF)cc4)c4ccc(C#N)cc43)C2)CC1 (stereo partly drawn) [Example 232, 1-[4-(2-Fluoro-ethoxy)-benzenesulfonyl]-2-oxo-3-{2-oxo-1-phenyl-2-[(S)-3-(4-propyl-piperazin-1-yl)-pyrrolidin-1-yl]-ethyl}-2,3-dihydro-1H-benzoimidazole-5-carbonitrile] | 0.1 to 0.5
7 | CCCN1CCN([C@H]2CCN(C(=O)C(c3ccccc3)n3c(=O)n(S(=O)(=O)c4ccc(OCC(F)F)cc4)c4ccc(C#N)cc43)C2)CC1 (stereo partly drawn) [Example 233, 1-[4-(2,2-Difluoro-ethoxy)-benzenesulfonyl]-2-oxo-3-{2-oxo-1-phenyl-2-[(S)-3-(4-propyl-piperazin-1-yl)-pyrrolidin-1-yl]-ethyl}-2,3-dihydro-1H-benzoimidazole-5-carbonitrile] | < 0.1
8 | CCCN1CCN([C@H]2CCN(C(=O)C(c3ccccc3)n3c(=O)n(S(=O)(=O)c4ccc(OCC(F)(F)F)cc4)c4ccc(C#N)cc43)C2)CC1 (stereo partly drawn) [Example 234, 2-oxo-3-{2-oxo-1-phenyl-2-[(S)-3-(4-propyl-piperazin-1-yl)-pyrrolidin-1-yl]-ethyl}1-[4-(2,2,2-trifluoro-ethoxy)-benzenesulfonyl]-2,3-dihydro-1H-benzoimidazole-5-carbonitrile] | 0.1 to 0.5
9 | COc1ccc(S(=O)(=O)n2c(=O)n(C(C(=O)N3CCC(N)CC3)c3ccccc3)c3cc(C#N)ccc32)cc1 (stereo not drawn) [Example 239, 3-[2-(4-Amino-piperidin-1-yl)-2-oxo-1-phenyl-ethyl]-1-(4-methoxybenzenesulfonyl)-2-oxo-2,3-dihydro-1H-benzoimidazole-5-carbonitrile] | 0.5 to 10
10 | COc1ccc(S(=O)(=O)n2c(=O)n(C(C(=O)N3CCC[C@H](N)C3)c3ccccc3)c3cc(C#N)ccc32)cc1 (stereo partly drawn) [Example 240, 3-[2-((S)-3-Amino-piperidin-1-yl)-2-oxo-1-phenyl-ethyl]-1-(4-methoxybenzenesulfonyl)-2-oxo-2,3-dihydro-1H-benzoimidazole-5-carbonitrile] | 0.1 to 0.5
11 | COc1ccc(S(=O)(=O)n2c(=O)n(C(C(=O)N3CC[C@H](NCc4c[nH]cn4)C3)c3ccccc3)c3cc(C#N)ccc32)cc1 (stereo partly drawn) [Example 242, 3-(2-{(S)-3-[(1H-Imidazol-4-ylmethyl)-amino]-pyrrolidin-1-yl}-2-oxo-1-phenylethyl)-1-(4-methoxy-benzenesulfonyl)-2-oxo-2,3-dihydro-1H-benzoimidazole-5-carbonitrile; compound with trifluoroacetic acid] | < 0.1
12 | COc1ccc(S(=O)(=O)n2c(=O)n(C(C(=O)N3CC[C@H](NC4CCN(C(=O)OC(C)(C)C)CC4)C3)c3ccccc3)c3cc(C#N)ccc32)cc1 (stereo partly drawn) [Example 243, 4-((S)-1-{2-[6-Cyano-3-(4-methoxy-benzenesulfonyl)-2-oxo-2,3-dihydrobenzoimidazol-1-yl]-2-phenyl-acetyl}-pyrrolidin-3-ylamino)-piperidine-1-carboxylic acid tert-butyl ester] | 0.5 to 10

Results, then the molecule that gave them:

Row | Ki [µM] | SMILES
13 | < 0.1 | COc1ccc(S(=O)(=O)n2c(=O)n(C(C(=O)N3CC[C@H](CN4CCN(Cc5ccccc5)CC4)C3)c3ccccc3)c3cc(C#N)ccc32)cc1 (stereo partly drawn) [Example 220, 3-{2-[(R)-3-(4-Benzyl-piperazin-1-ylmethyl)-pyrrolidin-1-yl]-2-oxo-1-phenylethyl}-1-(4-methoxy-benzenesulfonyl)-2-oxo-2,3-dihydro-1H-benzoimidazole-5-carbonitrile; compound with trifluoroacetic acid]
14 | < 0.1 | COc1ccc(S(=O)(=O)n2c(=O)n(C(C(=O)N3CC[C@@H](CN4CCN(Cc5ccccc5)CC4)C3)c3ccccc3)c3cc(C#N)ccc32)cc1 (stereo partly drawn) [Example 221, 3-{2-[(S)-3-(4-Benzyl-piperazin-1-ylmethyl)-pyrrolidin-1-yl]-2-oxo-1-phenylethyl}-1-(4-methoxy-benzenesulfonyl)-2-oxo-2,3-dihydro-1H-benzoimidazole-5-carbonitrile; compound with trifluoroacetic acid]
15 | < 0.1 | COc1ccc(S(=O)(=O)n2c(=O)n(C(C(=O)N3CC[C@H](CN4CCNCC4)C3)c3ccccc3)c3cc(C#N)ccc32)cc1 (stereo partly drawn) [Example 226, 1-(4-Methoxy-benzenesulfonyl)-2-oxo-3-[2-oxo-1-phenyl-2-((R)-3-piperazin-1-ylmethyl-pyrrolidin-1-yl)-ethyl]-2,3-dihydro-1H-benzoimidazole-5-carbonitrile]
16 | < 0.1 | CCN1CCN([C@H]2CCCN(C(=O)C(c3ccccc3)n3c(=O)n(S(=O)(=O)c4ccc(OC)cc4)c4ccc(C#N)cc43)C2)CC1 (stereo partly drawn) [Example 231, 3-{2-[(S)-3-(4-Ethyl-piperazin-1-yl)-piperidin-1-yl]-2-oxo-1-phenyl-ethyl}-1-(4-methoxy-benzenesulfonyl)-2-oxo-2,3-dihydro-1H-benzoimidazole-5-carbonitrile; compound with trifluoroacetic acid]
17 | < 0.1 | CCCN1CCN(C[C@H]2CCN(C(=O)C(c3ccccc3)n3c(=O)n(S(=O)(=O)c4ccc(OC)cc4)c4ccc(C#N)cc43)C2)CC1 (stereo partly drawn) [Example 235, 1-(4-Methoxy-benzenesulfonyl)-2-oxo-3-{2-oxo-1-phenyl-2-[(R)-3-(4-propylpiperazin-1-ylmethyl)-pyrrolidin-1-yl]-ethyl}-2,3-dihydro-1H-benzoimidazole-5-carbonitrile; compound with trifluoroacetic acid]
18 | < 0.1 | COc1ccc(S(=O)(=O)n2c(=O)n(C(C(=O)N3CC[C@H](CN4CCN(C)CC4)C3)c3ccccc3)c3cc(C#N)ccc32)cc1 (stereo partly drawn) [Example 236, 1-(4-Methoxy-benzenesulfonyl)-3-{2-[(R)-3-(4-methyl-piperazin-1-ylmethyl)-pyrrolidin-1-yl]-2-oxo-1-phenyl-ethyl}-2-oxo-2,3-dihydro-1H-benzoimidazole-5-carbonitrile; compound with trifluoroacetic acid]
19 | < 0.1 | CCN1CCN(C[C@H]2CCN(C(=O)C(c3ccccc3)n3c(=O)n(S(=O)(=O)c4ccc(OC)cc4)c4ccc(C#N)cc43)C2)CC1 (stereo partly drawn) [Example 237, 3-{2-[(R)-3-(4-Ethyl-piperazin-1-ylmethyl)-pyrrolidin-1-yl]-2-oxo-1-phenyl-ethyl}-1-(4-methoxy-benzenesulfonyl)-2-oxo-2,3-dihydro-1H-benzoimidazole-5-carbonitrile; compound with trifluoroacetic acid]
20 | < 0.1 | COc1ccc(S(=O)(=O)n2c(=O)n(C(C(=O)N3CC[C@H](CN4CCN(C(C)C)CC4)C3)c3ccccc3)c3cc(C#N)ccc32)cc1 (stereo partly drawn) [Example 238, 3-{2-[(R)-3-(4-Isopropyl-piperazin-1-ylmethyl)-pyrrolidin-1-yl]-2-oxo-1-phenylethyl}-1-(4-methoxy-benzenesulfonyl)-2-oxo-2,3-dihydro-1H-benzoimidazole-5-carbonitrile; compound with trifluoroacetic acid]
21 | 0.5 to 10 | COc1ccc(S(=O)(=O)n2c(=O)n(C(C(=O)N3CCC[C@@H](N)C3)c3ccccc3)c3cc(C#N)ccc32)cc1 (stereo partly drawn) [Example 241, 3-[2-((R)-3-Amino-piperidin-1-yl)-2-oxo-1-phenyl-ethyl]-1-(4-methoxybenzenesulfonyl)-2-oxo-2,3-dihydro-1H-benzoimidazole-5-carbonitrile]

— patent US8791148B2, “Substituted benzimidazolone derivatives, medicaments comprising them and their use” (AbbVie Deutschland GmbH & Co. KG, priority 2006, dated 2014)
